In ChEMBL document CHEMBL1201862, “PubChem BioAssay data set” (2004):
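Compound exposure: 48 hours, 5 concentrations, 96-well plates. GI50 marks 50% less growth.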 The source made the active and inactive calls. No stated cut-off is given here; in the data, active = GI50 up to about 1.1 µM and inactive = higher.

Tests used:
Assay in all cases: NCI-60 cell line screen, 48 h
A498 = test system: A498
ACHN = test system: ACHN
CCRF-CEM = test system: CCRF-CEM
IGROV-1 = test system: IGROV-1
LOX IMVI = test system: LOX IMVI
MDA-MB-231 = test system: MDA-MB-231
NCI-H522 = test system: NCI-H522
NCI/ADR-RES = test system: NCI/ADR-RES
OVCAR-4 = test system: OVCAR-4
PC-3 = test system: PC-3
SF-268 = test system: SF-268
T47D = test system: T47D
TK-10 = test system: TK-10
RXF 393 = test system: RXF 393
SK-MEL-5 = test system: SK-MEL-5
SK-OV-3 = test system: SK-OV-3
SF-539 = test system: SF-539

Compound | GI50 (A498) | GI50 (ACHN) | GI50 (CCRF-CEM) | GI50 (IGROV-1) | GI50 (LOX IMVI) | GI50 (MDA-MB-231) | GI50 (NCI-H522) | GI50 (NCI/ADR-RES) | GI50 (OVCAR-4) | GI50 (PC-3) | GI50 (SF-268) | GI50 (T47D) | GI50 (TK-10) | GI50 (RXF 393) | GI50 (SK-MEL-5) | GI50 (SK-OV-3) | GI50 (SF-539)
Cc1ccc(S[C@@H](C)[C@@](O)(CF)CN(Cc2ccccc2)C(=O)C(F)(F)F)cc1 | 11.5 µM (inactive) | 22.1 µM (inactive) | 11 µM (inactive) | > 100 µM (inactive) | 40.3 µM (inactive) | 22.4 µM (inactive) | > 100 µM (inactive) | 20.6 µM (inactive) | 14.9 µM (inactive) | 29.1 µM (inactive) | 33.2 µM (inactive) | 28.8 µM (inactive) | 35.2 µM (inactive) |  |  |  | 
CCOC(=O)Nc1cc(NC(/C=N/NC(C)=O)C(=O)OCC)c(OC)cc1NC(C)=O (stereo unspecified) | > 100 µM (inactive) | > 100 µM (inactive) | > 100 µM (inactive) | > 100 µM (inactive) |  | > 100 µM (inactive) |  | > 100 µM (inactive) | > 100 µM (inactive) | > 100 µM (inactive) | > 100 µM (inactive) | > 100 µM (inactive) | > 100 µM (inactive) | > 100 µM (inactive) | > 100 µM (inactive) | > 100 µM (inactive) | 
COC(=O)c1nsc(OC)c1Cl |  |  | > 100 µM (inactive) | > 100 µM (inactive) | > 100 µM (inactive) | > 100 µM (inactive) |  | > 100 µM (inactive) | > 100 µM (inactive) | > 100 µM (inactive) | > 100 µM (inactive) |  | > 100 µM (inactive) | > 100 µM (inactive) | > 100 µM (inactive) | > 100 µM (inactive) | > 100 µM (inactive)
CCC1OC2C(CC=C(C)C)=C3OC(C)(O)C(C)(CC)C(=O)C3=C3OC(=O)C=C1C32 (stereo unspecified) | 23.6 µM (inactive) | 26.3 µM (inactive) | 29.7 µM (inactive) |  | 12.3 µM (inactive) | 15.5 µM (inactive) |  | 27.8 µM (inactive) | 29.5 µM (inactive) | 38.8 µM (inactive) | 38.6 µM (inactive) | 66.2 µM (inactive) | 46.5 µM (inactive) |  | 16.5 µM (inactive) | > 100 µM (inactive) | 8.55 µM (inactive)
C=C(C)C1CCC2=CC(CC3(C)OC3C3=CC(C(=O)OC)=C(C1)O3)OC2=O (stereo unspecified) | > 100 µM (inactive) | > 100 µM (inactive) | 83.2 µM (inactive) | > 100 µM (inactive) | > 100 µM (inactive) | 93.3 µM (inactive) | 85.9 µM (inactive) | > 100 µM (inactive) |  | > 100 µM (inactive) | > 100 µM (inactive) | 32.9 µM (inactive) | > 100 µM (inactive) | 52.5 µM (inactive) | 72.3 µM (inactive) |  | 73.3 µM (inactive)
Cc1ccc(S(=O)(=O)N2CCCSCCSCCCSCC2)cc1 |  |  | > 100 µM (inactive) | > 100 µM (inactive) | > 100 µM (inactive) | > 100 µM (inactive) | > 100 µM (inactive) | > 100 µM (inactive) | > 100 µM (inactive) | > 100 µM (inactive) | > 100 µM (inactive) | > 100 µM (inactive) | > 100 µM (inactive) |  | > 100 µM (inactive) | > 100 µM (inactive) | > 100 µM (inactive)
COc1cc(C2c3cc4c(cc3C(O)C3CCC(=O)N23)OCO4)cc(OC)c1OC (stereo unspecified) | 42.6 µM (inactive) | 40 µM (inactive) | 29.9 µM (inactive) | 39.5 µM (inactive) | 52.4 µM (inactive) | > 100 µM (inactive) | 16.9 µM (inactive) | 53 µM (inactive) |  | 54.3 µM (inactive) | 49.9 µM (inactive) | > 100 µM (inactive) | 69.2 µM (inactive) |  | 10.9 µM (inactive) | 80.2 µM (inactive) | > 10 µM (inactive)
C=C1C(=O)OC2/C=C(\C)C(=O)CC3OC(C)(C)OC3(C)CC(OC(=O)/C(C)=C/C)C12 (stereo unspecified) | 21.9 µM (inactive) | 3.68 µM (inactive) | 0.897 µM (active) | 14.4 µM (inactive) | 12.2 µM (inactive) | 23.6 µM (inactive) | 2.99 µM (inactive) |  | 17.6 µM (inactive) | 25.8 µM (inactive) | 12.6 µM (inactive) | 17.6 µM (inactive) | 13.2 µM (inactive) | 12 µM (inactive) | 14.7 µM (inactive) | 55.5 µM (inactive) | 17.1 µM (inactive)
Cc1nc(-[n+]2nc(-c3ccncc3)nn2-c2ccccc2)sc1C | 92.7 µM (inactive) | 4.8 µM (inactive) | 17.5 µM (inactive) | 5.01 µM (inactive) | 2.69 µM (inactive) | 32.1 µM (inactive) | 3.15 µM (inactive) | 84.5 µM (inactive) |  | 15.5 µM (inactive) | 21.4 µM (inactive) | 39.4 µM (inactive) | 21.8 µM (inactive) | 18.7 µM (inactive) | 29.4 µM (inactive) | 21.2 µM (inactive) | 8.53 µM (inactive)
CCCc1c(OC)c(=O)c2c(OC)cc(OC)c3c4c(OC)cc(OC)c5c(=O)c(OC)c(CCC)c(c1c23)c54 | 19.1 µM (inactive) | 15.8 µM (inactive) |  | 14.8 µM (inactive) | 7.4 µM (inactive) | 4.38 µM (inactive) |  | 21.2 µM (inactive) | 13.3 µM (inactive) |  | 16.1 µM (inactive) | 4.07 µM (inactive) | 21 µM (inactive) | 20.7 µM (inactive) | 10.7 µM (inactive) | 15.5 µM (inactive) | 15.1 µM (inactive)
CCOC(=O)c1ccc(NC(NC(=O)CC)(C(F)(F)F)C(F)(F)F)cc1 | > 100 µM (inactive) | 55 µM (inactive) | > 100 µM (inactive) | > 100 µM (inactive) | 96.2 µM (inactive) | > 100 µM (inactive) | > 100 µM (inactive) | > 100 µM (inactive) |  | 60.3 µM (inactive) | > 100 µM (inactive) | > 100 µM (inactive) | > 100 µM (inactive) | > 100 µM (inactive) | > 100 µM (inactive) | > 100 µM (inactive) | > 100 µM (inactive)
O=S(=O)(c1ccccc1)n1c2cc3cccnc3nc2c2cccnc21 | > 100 µM (inactive) | 62.7 µM (inactive) | 22.4 µM (inactive) | 79.1 µM (inactive) | 42.5 µM (inactive) | > 100 µM (inactive) | 33.3 µM (inactive) | > 100 µM (inactive) | 72.3 µM (inactive) | 97.9 µM (inactive) | 56.8 µM (inactive) |  | > 100 µM (inactive) | 27.6 µM (inactive) | 54.3 µM (inactive) | > 100 µM (inactive) | 
COc1cc2oc(=O)cc(C)c2cc1OC | 40.2 µM (inactive) | > 100 µM (inactive) | > 100 µM (inactive) | > 100 µM (inactive) | > 100 µM (inactive) | > 100 µM (inactive) |  | > 100 µM (inactive) | > 100 µM (inactive) | > 100 µM (inactive) | > 100 µM (inactive) |  | > 100 µM (inactive) |  | > 100 µM (inactive) | > 100 µM (inactive) | > 100 µM (inactive)
Cc1cccc(N/C(=C(/C(Cl)=C(Cl)Cl)[N+](=O)[O-])n2nnc3ccccc32)c1 | 12.5 µM (inactive) | 24.3 µM (inactive) | 2.96 µM (inactive) |  |  | 13.3 µM (inactive) |  | 19.7 µM (inactive) | 19.5 µM (inactive) | 16.6 µM (inactive) | 15.9 µM (inactive) | 22.1 µM (inactive) |  |  |  | 21.3 µM (inactive) | 15.8 µM (inactive)
CCOC(=O)c1c(O)cc(=O)[nH]c1N1CCOCC1 | > 100 µM (inactive) | > 100 µM (inactive) | > 100 µM (inactive) | > 100 µM (inactive) | > 100 µM (inactive) |  |  | > 100 µM (inactive) |  | > 100 µM (inactive) |  | > 100 µM (inactive) |  |  | > 100 µM (inactive) | > 100 µM (inactive) | > 100 µM (inactive)
COc1cccc(C(NC2=NCCC=N2)c2cc3c(cc2O)OCO3)c1O (stereo unspecified) | 27.7 µM (inactive) | 48 µM (inactive) | 10.8 µM (inactive) | 29.4 µM (inactive) | 19.5 µM (inactive) | 23.6 µM (inactive) | 15.8 µM (inactive) |  |  | 29.1 µM (inactive) | 34.8 µM (inactive) | 25.5 µM (inactive) | 76.9 µM (inactive) | 23.8 µM (inactive) | 38.8 µM (inactive) | 94 µM (inactive) | 25.8 µM (inactive)
CC1(C)C2CCC1(C)C(N/C(Sc1ccccc1)=C(/C(Cl)=C(Cl)Cl)[N+](=O)[O-])C2 (stereo unspecified) | 15 µM (inactive) | 13.5 µM (inactive) |  |  |  | 10.4 µM (inactive) |  | 14 µM (inactive) | 13.4 µM (inactive) | 9.06 µM (inactive) | 12 µM (inactive) | 13.5 µM (inactive) |  |  |  | 13.8 µM (inactive) | 13.5 µM (inactive)
Cc1ncc([N+](=O)[O-])n1CCNC(=O)Cn1ccnc1[N+](=O)[O-] | > 100 µM (inactive) | > 100 µM (inactive) | > 100 µM (inactive) | > 100 µM (inactive) |  | > 100 µM (inactive) | > 100 µM (inactive) | > 100 µM (inactive) |  | > 100 µM (inactive) | > 100 µM (inactive) | > 100 µM (inactive) | > 100 µM (inactive) |  | > 100 µM (inactive) | > 100 µM (inactive) | > 100 µM (inactive)
COc1ccc(-c2cc(=O)c3c(OC)c(OC)c(OC)c(OC)c3o2)cc1 [TANGERETIN] | 22.8 µM (inactive) | 57 µM (inactive) | 82.6 µM (inactive) | 69 µM (inactive) | 52.2 µM (inactive) | 28.8 µM (inactive) | 15.3 µM (inactive) | 23.7 µM (inactive) | 46.1 µM (inactive) |  | > 100 µM (inactive) | 17 µM (inactive) | 58.2 µM (inactive) | 45.4 µM (inactive) | 27.7 µM (inactive) | 99.8 µM (inactive) | > 100 µM (inactive)
